Measured values taken from ChEMBL document CHEMBL1275325, “QSAR guided synthesis of simplified antiplasmodial analogs of naphthylisoquinoline alkaloids” (Eur J Med Chem, 2010).

What was measured:
[1] = test system: Trypanosoma brucei rhodesiense; assay: Antitrypanosomal activity against Trypanosoma brucei rhodesiense STIB900; format: functional, organism-based
Leishmania major = assay: Antileishmanial activity against promastigotes of Leishmania major; format: functional, organism-based
Trypanosoma cruzi = assay: Antitrypanosomal activity against clone C4 Trypanosoma cruzi Tulahuen expressing LacZ; format: functional, organism-based
L6 = assay: Cytotoxicity against rat L6 cells; format: cell-based
[2] = test system: Trypanosoma brucei brucei; assay: Antitrypanosomal activity against Trypanosoma brucei brucei; format: functional, organism-based
Leishmania donovani = assay: Antileishmanial activity against axenic amastigotes of Leishmania donovani; format: functional, organism-based
Plasmodium falciparum = assay: Antiplasmodial activity against Plasmodium falciparum K1; format: functional, organism-based
[3] = Selectivity index, ratio of IC50 for rat L6 cells to IC50 for Plasmodium falciparum K1; format: toxicity, cell-based; settings: read-out: Ratio IC50
[4] = Trypanosoma brucei, STIB900, read-out: IC50
[5] = Leishmania major, read-out: IC50
[6] = Trypanosoma cruzi, Tulahuen, read-out: IC50
[7] = Trypanosoma brucei, read-out: IC50
[8] = Leishmania donovani, read-out: IC50

Compound	IC50 [1, 4]	IC50 (Leishmania major; [5])	IC50 (Trypanosoma cruzi; [6])	IC50 [2, 7]	IC50 (Leishmania donovani; [8])	IC50 (Plasmodium falciparum)	IC50 (Leishmania major)	IC50 [2]	IC50 [1]	IC50 (Trypanosoma cruzi)	IC50 (Leishmania donovani)	IC50 (L6)	selectivity ratio [3]
COc1ccc(-c2ccc(C(F)(F)F)cc2)c2c1C(C)=N[C@H](C)C2	7.38 µM	> 100 µM	> 100 µM	10.4 µM	18.3 µM	3 µM	–	–	–	–	–	> 100 µM	–
COc1ccc(-c2ccc(Cl)cc2)c2c1C(C)=N[C@H](C)C2	7.81 µM	–	15 µM	–	15.9 µM	6.44 µM	Not Active	Not Active	–	–	–	56.7 µM	–
COc1ccc(-c2ccc(C)cc2)c2c1C(C)=N[C@H](C)C2	5.83 µM	> 83 µM	19.3 µM	20.2 µM	35.5 µM	2.49 µM	–	–	–	–	–	> 100 µM	–
CC1=N[C@H](C)Cc2c(-c3ccc(O)cc3)ccc(O)c21	53.5 µM	–	> 100 µM	–	> 100 µM	9.91 µM	Not Active	Not Active	–	–	–	> 100 µM	–
COc1ccc(-c2cccc(Cl)c2)c2c1C(C)=N[C@H](C)C2	1.18 µM	–	14 µM	–	13 µM	7.96 µM	Not Active	Not Active	–	–	–	38.4 µM	–
COc1ccc(-c2ccc(O)cc2)c2c1C(C)=N[C@H](C)C2	4.77 µM	–	25.5 µM	–	21.4 µM	10.8 µM	Not Active	Not Active	–	–	–	> 100 µM	–
C[C@@H]1[C@H](O)[C@@H](C)/C=C/C=C/C=C/C=C/C=C/C=C/C=C/[C@H](O[C@@H]2O[C@H](C)[C@@H](O)[C@H](N)[C@@H]2O)C[C@@H]2O[C@](O)(C[C@@H](O)C[C@@H](O)[C@H](O)CC[C@@H](O)C[C@@H](O)CC(=O)O[C@H]1C)C[C@H](O)[C@H]2C(=O)O [AMPHOTERICIN B]	–	2.51 µM	–	–	–	–	–	–	–	–	–	–	–
COc1cccc2c(-c3ccc(O)c4c3CCN=C4)ccc(O)c12	–	–	–	–	–	1.99 µM	Not Active	Not Active	Not Active	Not Active	Not Active	98.2 µM	–
COc1ccc(-c2cccc3ccccc23)c2c1C(C)=N[C@H](C)C2	3.96 µM	–	15.9 µM	–	14.4 µM	6.91 µM	Not Active	Not Active	–	–	–	34.9 µM	–
COc1ccc(-c2ccc(OC)c3ccccc23)c2c1C=NC(C)(C)C2	–	37.2 µM	–	30.4 µM	1.95 µM	2.4 µM	–	–	Not Active	Not Active	–	43.8 µM	–
O=C(Cn1ccnc1[N+](=O)[O-])NCc1ccccc1 [BENZNIDAZOLE]	–	–	1.98 µM	–	–	–	–	–	–	–	–	–	–
COc1ccc(Br)c2c1C(C)=N[C@H](C)C2	> 100 µM	–	> 100 µM	–	> 100 µM	> 18.9 µM	Not Active	Not Active	–	–	–	> 100 µM	–
Oc1ccc(-c2ccc(O)c3ccccc23)c2c1C=NCC2	–	–	–	–	–	3.49 µM	Not Active	Not Active	Not Active	Not Active	Not Active	94.2 µM	–
COc1ccc(-c2ccccc2)c2c1C(C)=N[C@H](C)C2	6.48 µM	> 100 µM	46.7 µM	14.8 µM	74.9 µM	1.88 µM	–	–	–	–	–	58.8 µM	–
N=C(N)c1ccc(OCCCCCOc2ccc(C(=N)N)cc2)cc1 [PENTAMIDINE]	–	–	–	0.003 µM	–	–	–	–	–	–	–	–	–
Nc1nc(N)nc(Nc2ccc([As]3SCC(CO)S3)cc2)n1 (centres undefined) [MELARSOPROL]	0.007 µM	–	–	–	–	–	–	–	–	–	–	–	–

More lines, main results first:

IC50 [1, 4]	IC50 (Leishmania major; [5])	IC50 (Trypanosoma cruzi; [6])	IC50 [2, 7]	IC50 (Leishmania donovani; [8])	IC50 (Plasmodium falciparum)	IC50 (Leishmania major)	IC50 [2]	IC50 [1]	IC50 (Trypanosoma cruzi)	IC50 (Leishmania donovani)	Compound	IC50 (L6)	selectivity ratio [3]
7.12 µM	> 86 µM	39.3 µM	32 µM	52 µM	0.437 µM	–	–	–	–	–	CC1=N[C@H](C)Cc2c(-c3ccc(C)cc3)ccc(O)c21	> 100 µM	> 229
–	–	–	–	–	0.138 µM	Not Active	Not Active	Not Active	Not Active	Not Active	COc1cccc2c(-c3ccc(O)c4c3CC(C)(C)N=C4)ccc(OC(C)C)c12	> 100 µM	> 725
7.63 µM	52.4 µM	13.9 µM	27.1 µM	24.7 µM	0.856 µM	–	–	–	–	–	CC1=N[C@H](C)Cc2c(-c3cccc(Cl)c3)ccc(O)c21	50.8 µM	–
2.48 µM	–	–	–	–	0.264 µM	Not Active	Not Active	–	Not Active	Not Active	COc1cccc2c(-c3ccc(O)c4c3CCNC4)ccc(O)c12	40.2 µM	152
2.92 µM	–	–	–	–	0.223 µM	Not Active	Not Active	–	Not Active	Not Active	COc1cccc2c(-c3ccc(O)c4c3CC(C)(C)NC4)ccc(O)c12	37.5 µM	168
–	46.3 µM	10.9 µM	26.3 µM	–	1.7 µM	–	–	Not Active	–	Not Active	COc1ccc(-c2ccc(OC)c3ccccc23)c2c1C=NCC2	34.3 µM	–
4.44 µM	28.1 µM	20.9 µM	10.1 µM	21.2 µM	1.18 µM	–	–	–	–	–	COc1ccc(-c2ccc3ccccc3c2)c2c1C(C)=N[C@H](C)C2	72 µM	–
–	> 100 µM	–	> 100 µM	–	0.708 µM	–	–	Not Active	Not Active	Not Active	CC1(C)Cc2c(Br)ccc(O)c2C=N1	> 100 µM	> 141
14.8 µM	> 100 µM	19.2 µM	15.9 µM	35.1 µM	0.46 µM	–	–	–	–	–	CC1=N[C@H](C)Cc2c(-c3ccc(C(F)(F)F)cc3)ccc(O)c21	96.8 µM	210
11.1 µM	13.4 µM	15.8 µM	2.74 µM	27.1 µM	0.763 µM	–	–	–	–	–	CC1=N[C@H](C)Cc2c(-c3cccc4ccccc34)ccc(O)c21	57.1 µM	–
1.01 µM	34.7 µM	16.7 µM	25.4 µM	38.2 µM	0.476 µM	–	–	–	–	–	CC1=N[C@H](C)Cc2c(-c3ccc4ccccc4c3)ccc(O)c21	72.5 µM	152
–	> 100 µM	–	> 40 µM	–	0.532 µM	–	–	Not Active	Not Active	Not Active	CC1=N[C@H](C)Cc2c(-c3ccc(Cl)cc3)ccc(O)c21	> 100 µM	> 188
–	–	–	–	–	1.24 µM	Not Active	Not Active	Not Active	Not Active	Not Active	Oc1ccc(Br)c2c1C=NCC2	> 100 µM	–
–	> 100 µM	–	34.1 µM	–	1.7 µM	–	–	Not Active	Not Active	Not Active	COc1cccc2c(-c3ccc(O)c4c3CC(C)(C)N=C4)ccc(O)c12	> 100 µM	–
4.74 µM	> 100 µM	57.1 µM	13.4 µM	> 100 µM	0.82 µM	–	–	–	–	–	CC1=N[C@H](C)Cc2c(-c3ccccc3)ccc(O)c21	52.2 µM	–
–	–	–	–	–	0.119 µM	Not Active	Not Active	Not Active	Not Active	Not Active	COc1cccc2c(-c3ccc(O)c4c3CCN=C4)ccc(OC(C)C)c12	27 µM	227
